From US8314085B2, “Agent for overcoming resistance to anti-cancer agent” (Nippon Chemiphar Co., Ltd., priority 2006, dated 2012)
pIC50: −log10 of the molar value. Where a name gives a salt, the structure may show the parent alone. Read-outs that look alike come from different tables or passages of the source.

What was measured:
[1] = target: T1, BCRP (Homo sapiens, UniProt Q9UNQ0); test: BCRP-mediated methotrexate transport in membrane vesicles of BCRP-expressing Sf9 cells; conditions: for inhibitory action on BCRP-mediated methotrexate transport: at concentration of 100 μmol/L
T1 sequence (Q9UNQ0 1-655): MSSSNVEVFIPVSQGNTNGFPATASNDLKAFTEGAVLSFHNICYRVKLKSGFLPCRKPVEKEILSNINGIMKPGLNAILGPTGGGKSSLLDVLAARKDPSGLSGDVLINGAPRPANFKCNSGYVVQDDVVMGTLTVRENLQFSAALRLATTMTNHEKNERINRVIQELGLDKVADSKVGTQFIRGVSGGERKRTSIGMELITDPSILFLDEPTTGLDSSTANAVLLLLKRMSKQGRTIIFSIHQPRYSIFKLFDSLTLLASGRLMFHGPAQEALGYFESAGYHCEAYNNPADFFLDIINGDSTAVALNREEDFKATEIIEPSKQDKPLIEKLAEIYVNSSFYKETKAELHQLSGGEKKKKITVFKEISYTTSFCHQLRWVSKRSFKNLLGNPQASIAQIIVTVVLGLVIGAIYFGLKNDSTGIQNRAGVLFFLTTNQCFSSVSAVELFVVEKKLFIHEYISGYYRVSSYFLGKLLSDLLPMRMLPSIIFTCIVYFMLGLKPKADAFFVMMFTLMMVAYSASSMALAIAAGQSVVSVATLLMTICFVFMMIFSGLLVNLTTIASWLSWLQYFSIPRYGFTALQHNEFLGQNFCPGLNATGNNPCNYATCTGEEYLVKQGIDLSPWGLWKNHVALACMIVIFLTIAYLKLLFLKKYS
Description: (§1) In the experiment, plasma membrane was prepared from BCRP-expressing Sf9 cells.
(§2) The activity of methotrexate transport was measured using 96 wells-plate according to the following method.
(§3) Preparation and Composition of Reaction Solution
(§4) 50 μL of solution containing sucrose (250 mmol/L) and Tris/Hepes (10 mmol/L, pH: 7.4)
(§5) 30 μL of solution containing ATP (3.33 mmol/L), creatine phosphate (33.3 mmol/L), and MgCl2 (33.3 mmol/L)
(§6) (or solution containing creatine phosphate (33.3 mmol/L) and MgCl2 (33.3 mmol/L))
5 μL of creatine kinase (2 mg/mL)
(§7) 2 μL of [^3H]methotrexate (10 mmol/L, final concentration: 200 μmol/L)
(§8) 10 μL of membrane sample of BCRP-expressing Sf9 cells (total protein: 50 μg)
(§9) The reaction solution was incubated at 37° C. for 20 minutes. 1 mL of ice-cooled solution containing sucrose (250 mmol/L), EDTA (2 mmol/L), and Tris/Hepes (10 mmol/L, pH: 7.4) was quickly added to the reaction solution to stop the reaction. Each 270 μL of the mixed solution was poured into each well of MultiScreen™ (Millipore), and sucked. The wells were washed four times with 200 μL of ice-cooled solution containing sucrose (250 mmol/L) and Tris/Hepes (10 mmol/L, pH: 7.4). The radioactivity trapped on a filter of each well was measured. The amount of methotrexate transported into the membrane vesicle was calculated from the radioactivity.

[2] = system: BCRP-overexpressing cells (Flp-In-293/BCRP); test: Influence on anti-cancer agent (SN-38) resistance in BCRP-overexpressing cells, MTT assay; assay type: cell-based; conditions: Flp-In-293/ABCG2 cells; for degree of reversing resistance to SN-38: at the concentration of 5 μmol/L, 72 hours
Description: (§10) The cells were cultured under the atmosphere of 5% CO2 using DMEM containing FCS (10%), penicillin (100 U/mL), streptomycin (100 μg/mL), amphotericin B (250 ng/mL), hygromycin B (100 μg/mL), and L-glutamine (2 mmol/L).
(§11) The resistance of Flp-In-293 cells to an agent was profiled by counting living cells using MTT assay. In more detail, the cells were seeded in 96-wells plate at the concentration of 2×10^3 cells/well, and cultured for 24 hours.

[3] = system: Flp-In-293/ABCG2 cells; test: Toxicity to the cells (viability, MTT assay); conditions: at or up to the concentration of 10 μmol/L
Description: as §10, §11

[4] = target: T1, BCRP
Description: as §1, §2, §3, §4, §5, §6
5 μL of creatine kinase (2 mg/mL)
as §7, §8, §9

Structure (SMILES)	pIC50 [1]	effect of overcoming resistance to SN-38 (in words) [2]	degree of reversing resistance to SN-38 [2]	toxicity to the cells / effect on viability [3]	also measured
N#Cc1cc(-c2nc3cncnc3s2)ccc1Oc1ccc(F)cc1 [Compound 2, 2-[3-cyano-4-(4-fluorophenoxy)phenyl]thiazolo[5,4-d]pyrimidine]	5.96	reversed the resistance of Flp-In-293/ABCG2 cells to SN-38 in a concentration-dependent manner	about 90%	–	–
N#Cc1cc(-c2nc3c(O)ncnc3s2)ccc1Oc1ccccc1 [Compound 5, 2-(3-cyano-4-phenoxyphenyl)-4-hydroxythiazolo[5,4-d]pyrimidine]	–	–	about 96%	did not exhibit toxicity to the cells	–
O=c1[nH]c(=O)c2c[nH]nc2[nH]1 [oxypurinol]	–	did not exhibit an effect of overcoming resistance to SN-38	–	–	inhibitory action on BCRP-mediated methotrexate transport [1]: did not exhibit an inhibitory action
N#Cc1cc(-c2nc3c([O-])ncnc3s2)ccc1Oc1ccc(F)cc1.[K+] [Compound 1, potassium salt of 2-[3-cyano-4-(4-fluorophenoxy)phenyl]-4-hydroxythiazolo[5,4-d]pyrimidine]	–	reversed the resistance of Flp-In-293/ABCG2 cells to SN-38 in a concentration-dependent manner	about 96%	did not affect viability	pIC50 ([1]; read-out: IC50 (concentration inhibiting methotrexate transport by 50%), [3H]methotrexate 200 μmol/L, 37° C., 20 minutes): 6.34
N#Cc1cc(-c2n[nH]c(-c3ccncc3)n2)ccn1 [FYX-051, 4-[5-pyridin-4-yl-1H-[1,2,4]triazol-3-yl]pyridine-2-carbonitrile]	6.11	–	about 39%	–	–
Cc1nc(-c2ccc(OCC(C)C)c(C#N)c2)sc1C(=O)O [TMX-67, Febuxostat]	6.60	–	about 82%	did not exhibit toxicity to the cells	–
Oc1ncnc2[nH]ncc12 [allopurinol]	–	did not exhibit an effect of overcoming resistance to SN-38	–	did not exhibit toxicity to the cells	inhibitory action on BCRP-mediated methotrexate transport [1]: did not exhibit an inhibitory action
N#Cc1cc(-c2nc3cncnc3s2)ccc1Oc1ccccc1 [Compound 4, 2-(3-cyano-4-phenoxyphenyl)thiazolo[5,4-d]pyrimidine]	6.18	–	–	–	–
CC(C)(C)COc1ccc(-n2cc(C(=O)O)cn2)cc1C#N [Compound Y-700, 1-[3-cyano-4-(2,2-dimethylpropoxy)phenyl]-1H-pyrazole-4-carboxylic acid]	–	did not exhibit an effect of overcoming the resistance in the concentration not exhibiting toxicity to the cells	–	–	–
N#Cc1cc(-c2nc3c(O)ncnc3s2)ccc1Oc1ccccc1 [Compound 3, potassium salt of 2-(3-cyano-4-phenoxyphenyl)-4-hydroxythiazolo[5,4-d]pyrimidine]	–	–	–	–	pIC50 [4]: 6.64
